Reference: PubChem BioAssay (NCI)
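Assay format: 96-well plates, 48-hour exposure. The concentration for 50% growth inhibition is given as GI50. TGI denotes the concentration required for complete inhibition of growth.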

system: SK-OV-3 ovarian; assay: NCI anticancer screen, dose series, 48 h

How did the GI50 turn out when `CC(=O)Oc1ccccc1C(=O)N=C1[Se]CCN1C(=O)c1ccccc1OC(C)=O` was run?
The GI50 was 1.05 µM.

And the TGI?
The TGI was 2.82 µM.

`O=S(O)CCCCSSCc1ccccc1CSSCCCCS(=O)O` was tested. Which TGI did it give?
Its TGI is > 100 µM.

Which TGI does the source give for `CCOC(=O)c1[nH]c(COC(C)=O)c(CCCOC(C)=O)c1CCCOC(C)=O` here?
Its TGI is > 100 µM.

`COc1cc(/C=C2\C(=O)Nc3ccc(F)cc32)cc(OC)c1OC` was tested. Which GI50 did it give?
The GI50 was > 100 µM.

And the TGI?
Its TGI is > 100 µM.

Which GI50 does the source give for `C#C[C@]1(O)CC[C@H]2[C@@H]3CC=C4c5sc(Nc6ccccc6)nc5CC[C@]4(C)[C@H]3CC[C@@]21C` here?
Its GI50 is 2.37 µM.

And the TGI?
The TGI was 10.6 µM.

`O=C(Nc1ccc([N+](=O)[O-])cc1)C1C(=O)C(=O)N(c2ccc([N+](=O)[O-])cc2)C1=O` (stereo unspecified) was tested. Which TGI did it give?
Its TGI is > 100 µM.

Which TGI does the source give for `O=C(/C=C/c1c(O)ccc2ccccc12)c1ccc2ccccc2c1` here?
Its TGI is > 100 µM.

With `O=c1[nH]c2cc(Cl)ccc2n1C1CCN(CCCC(c2ccc(F)cc2)c2ccc(F)cc2)CC1` as the compound, how does the GI50 read?
The GI50 was 1.82 µM.

What about the TGI of the same compound?
The TGI was 3.72 µM.

How did the TGI turn out when `CCOC(=O)C1N(S(=O)(=O)c2ccc(C)cc2)CCC12C(c1ccc(OC)cc1)NC1CCCCC12` (stereo unspecified) was run?
The TGI was > 100 µM.

With `COc1ccccc1NC(=O)C1=C(C)NC(C)=C(C(=O)Nc2ccccc2OC)C1c1ccc([N+](=O)[O-])cc1` as the compound, how does the TGI read?
The TGI was > 100 µM.

With `O=C(CSc1nnc(-c2ccccc2NC(=O)C(F)(F)F)c(=O)[nH]1)NC(=O)Nc1ccccc1` as the compound, how does the TGI read?
Its TGI is > 100 µM.

With `COC(=O)/C=C/C1C(C(=O)OC)C2(C(=O)OC)CCC1(C(=O)OC)N2` (stereo unspecified) as the compound, how does the TGI read?
Its TGI is > 100 µM.

`CC(C)(C)N1CC2(CCCCC2)C1=O` was tested. Which TGI did it give?
The TGI was > 100 µM.

Which results are given for `C#CC(=O)Nc1cccc(Nc2nc3c(c(NCc4ccccc4)n2)CCCC3)c1`?
GI50: 0.336 µM; TGI: 0.793 µM

Which TGI does the source give for `COc1ccc(C(=O)C(CO)Oc2ccccc2OC)cc1OC` (stereo unspecified) here?
Its TGI is > 100 µM.

`N#CC(/C(=N/NC(=O)C(=O)NN)C(=O)NC12CC3CC(CC(C3)C1)C2)c1ccccc1` (stereo unspecified) was tested. Which TGI did it give?
Its TGI is > 100 µM.

Which TGI does the source give for `CC(C)(C)C(=O)/C=C/c1ccc(Oc2ccccc2)cc1` here?
The TGI was > 100 µM.

For `CN=NN(C)C(=O)NC`, which TGI is on record?
The TGI was > 100 µM.

Which GI50 does the source give for `Nc1c(C(=O)N/N=C/c2ccc(-c3ccc(Cl)cc3)o2)cnn1-c1ccnc2c(C(F)(F)F)cccc12` here?
Its GI50 is > 100 µM.

What about the TGI of the same compound?
The TGI was > 100 µM.

With `NC(N)=N/N=C/c1cc(Cl)cc(Cl)c1O` as the compound, how does the TGI read?
The TGI was > 100 µM.

How did the TGI turn out when `CCCCCCCCCc1cc(=O)c2c(O)cccc2o1` was run?
The TGI was > 100 µM.

With `N#CC1Nc2ccccc2[C@@H](O)C1O` (stereo partly specified) as the compound, how does the TGI read?
The TGI was > 100 µM.

How did the TGI turn out when `O=C(CN1CCCCC1)N1CCc2c([nH]c3ccccc23)C1c1cccnc1` (stereo unspecified) was run?
The TGI was > 100 µM.

`COC(=O)C12C3C4C5(C(=O)OC)C(C1C35C(=O)N(C(C)C)C(C)C)C42C(=O)N(C(C)C)C(C)C` (stereo unspecified) was tested. Which TGI did it give?
Its TGI is > 50 µM.

With `COc1ccc(C2C(C#N)=C(N)OC3=C2COc2ccc(F)cc23)cc1OC` (stereo unspecified) as the compound, how does the GI50 read?
The GI50 was 37.3 µM.

What about the TGI of the same compound?
The TGI was > 100 µM.

Which TGI does the source give for `Cc1cc(C)n(CCNCCn2nc(C)cc2C)n1` here?
Its TGI is > 100 µM.

With `O=C1CSC(Cc2nc3ccccc3[nH]2)=N1` as the compound, how does the TGI read?
Its TGI is 51.3 µM.

With `O=C(/C=C/c1ccccc1)/C=C/c1ccccc1` as the compound, how does the TGI read?
Its TGI is > 100 µM.

Which TGI does the source give for `N#C/C(=C\c1ccc(O)c(O)c1)C(N)=O` here?
The TGI was > 100 µM.

Which TGI does the source give for `N#CC(C#N)=c1[nH]c2cccc3c2-c2c(cccc2c3=C(C#N)C#N)[nH]1` here?
Its TGI is > 100 µM.

system: UACC-257 melanoma; assay: NCI anticancer screen, dose series, 48 h

Which results are given for `CC(=O)Oc1ccccc1C(=O)N=C1[Se]CCN1C(=O)c1ccccc1OC(C)=O`?
GI50: 1.02 µM; TGI: 3.2 µM

For `O=S(O)CCCCSSCc1ccccc1CSSCCCCS(=O)O`, which TGI is on record?
Its TGI is 18.2 µM.

`CCOC(=O)c1[nH]c(COC(C)=O)c(CCCOC(C)=O)c1CCCOC(C)=O` was tested. Which TGI did it give?
Its TGI is > 100 µM.

How did the GI50 turn out when `COc1cc(/C=C2\C(=O)Nc3ccc(F)cc32)cc(OC)c1OC` was run?
The GI50 was 87.6 µM.

And the TGI?
Its TGI is > 100 µM.

`C#C[C@]1(O)CC[C@H]2[C@@H]3CC=C4c5sc(Nc6ccccc6)nc5CC[C@]4(C)[C@H]3CC[C@@]21C` was tested. Which GI50 did it give?
The GI50 was 2.46 µM.

What about the TGI of the same compound?
Its TGI is 8.6 µM.

For `O=C(Nc1ccc([N+](=O)[O-])cc1)C1C(=O)C(=O)N(c2ccc([N+](=O)[O-])cc2)C1=O` (stereo unspecified), which TGI is on record?
The TGI was > 100 µM.

For `Cc1cn2c(/C=C3/C(=O)Nc4ccccc43)c(-c3ccc(Cl)cc3)nc2s1`, which GI50 is on record?
The GI50 was 10.5 µM.

What about the TGI of the same compound?
The TGI was 27.8 µM.

Which TGI does the source give for `O=C(CCC/C(CC(=O)c1ccc(Br)cc1)=N\O)Nc1ccccc1` here?
Its TGI is > 100 µM.

With `O=C(/C=C/c1c(O)ccc2ccccc12)c1ccc2ccccc2c1` as the compound, how does the TGI read?
The TGI was > 100 µM.

For `O=c1[nH]c2cc(Cl)ccc2n1C1CCN(CCCC(c2ccc(F)cc2)c2ccc(F)cc2)CC1`, which GI50 is on record?
Its GI50 is 1.56 µM.

What about the TGI of the same compound?
The TGI was 3.04 µM.

`CCOC(=O)C1N(S(=O)(=O)c2ccc(C)cc2)CCC12C(c1ccc(OC)cc1)NC1CCCCC12` (stereo unspecified) was tested. Which TGI did it give?
Its TGI is > 100 µM.

`COc1ccccc1NC(=O)C1=C(C)NC(C)=C(C(=O)Nc2ccccc2OC)C1c1ccc([N+](=O)[O-])cc1` was tested. Which TGI did it give?
Its TGI is > 100 µM.

With `COC(=O)/C=C/C1C(C(=O)OC)C2(C(=O)OC)CCC1(C(=O)OC)N2` (stereo unspecified) as the compound, how does the TGI read?
The TGI was > 100 µM.

For `CC(C)(C)N1CC2(CCCCC2)C1=O`, which TGI is on record?
The TGI was > 100 µM.

For `COc1ccc(C(=O)C(CO)Oc2ccccc2OC)cc1OC` (stereo unspecified), which TGI is on record?
Its TGI is > 100 µM.

With `N#CC(/C(=N/NC(=O)C(=O)NN)C(=O)NC12CC3CC(CC(C3)C1)C2)c1ccccc1` (stereo unspecified) as the compound, how does the TGI read?
The TGI was > 100 µM.

How did the TGI turn out when `CC(C)(C)C(=O)/C=C/c1ccc(Oc2ccccc2)cc1` was run?
Its TGI is 42.6 µM.

How did the TGI turn out when `NC(N)=N/N=C/c1cc(Cl)cc(Cl)c1O` was run?
The TGI was > 100 µM.

For `CCCCCCCCCc1cc(=O)c2c(O)cccc2o1`, which TGI is on record?
The TGI was > 100 µM.

Which TGI does the source give for `N#CC1Nc2ccccc2[C@@H](O)C1O` (stereo partly specified) here?
Its TGI is > 100 µM.

With `CCOC(=O)CCc1c(C)c2c(OC(C)=O)cc(OC(C)=O)cc2oc1=O` as the compound, how does the TGI read?
The TGI was > 100 µM.

`O=C(CN1CCCCC1)N1CCc2c([nH]c3ccccc23)C1c1cccnc1` (stereo unspecified) was tested. Which TGI did it give?
The TGI was > 100 µM.

For `COC(=O)C12C3C4C5(C(=O)OC)C(C1C35C(=O)N(C(C)C)C(C)C)C42C(=O)N(C(C)C)C(C)C` (stereo unspecified), which TGI is on record?
The TGI was > 50 µM.

For `COc1ccc(C2C(C#N)=C(N)OC3=C2COc2ccc(F)cc23)cc1OC` (stereo unspecified), which GI50 is on record?
Its GI50 is 41.4 µM.

And the TGI?
Its TGI is > 100 µM.

Which TGI does the source give for `Cc1cc(C)n(CCNCCn2nc(C)cc2C)n1` here?
Its TGI is > 100 µM.

Which TGI does the source give for `O=C1CSC(Cc2nc3ccccc3[nH]2)=N1` here?
The TGI was > 90.7 µM.

`O=C(/C=C/c1ccccc1)/C=C/c1ccccc1` was tested. Which TGI did it give?
The TGI was 87 µM.

For `N#C/C(=C\c1ccc(O)c(O)c1)C(N)=O`, which TGI is on record?
Its TGI is > 100 µM.

What does the source list for `CCOC(=O)C1=C(C)N(N)C(=S)NC1c1ccc(C)cc1` (stereo unspecified)?
GI50: 36.2 µM; TGI: > 100 µM

Which TGI does the source give for `N#CC(C#N)=c1[nH]c2cccc3c2-c2c(cccc2c3=C(C#N)C#N)[nH]1` here?
Its TGI is > 100 µM.

system: BT-549 breast; assay: NCI anticancer screen, dose series, 48 h

For `COc1cc(/C=C2\C(=O)Nc3ccc(F)cc32)cc(OC)c1OC`, which GI50 is on record?
The GI50 was 22.7 µM.

And the TGI?
The TGI was > 100 µM.
